Data on 3 molecules can be found in ChEMBL document CHEMBL4725253, “Discovery of quinoline-based irreversible BTK inhibitors” (Bioorg Med Chem Lett, 2020).

A value given as a limit tells only on which side of the number the result lay.

Assay [1] is described as follows: Inhibition of anti-human alphaIgM-stimulated MIP1beta production in human Ramos B cells preincubated for 1 hr followed by anti-human IgM stimulation for 6 hrs by ELISA. It counts as functional, cell-based.
Assay [2] has as its target Epidermal growth factor receptor (Homo sapiens, UniProt P00533). The experiment in a line: Inhibition of EGFR (unknown origin) expressed in baculovirus system using fluorescein labeled PDGFR-tide substrate peptide preincubated for 60 mins followed by ATP addition and measured after 60 mins by IMAP assay.
A short description of assay [3]: Inhibition of goat anti-human IgM F(ab')-stimulated CD69 cell surface expression in human PBMC preincubated for 2 hrs followed by anti-human IgM stimulation for 18 hrs by flow cytometric analysis. The class given is functional, tissue-based.
Assay [4] deals with T1, Tyrosine-protein kinase Tec (Homo sapiens, UniProt P42680).
T1 sequence (P42680 whole entry): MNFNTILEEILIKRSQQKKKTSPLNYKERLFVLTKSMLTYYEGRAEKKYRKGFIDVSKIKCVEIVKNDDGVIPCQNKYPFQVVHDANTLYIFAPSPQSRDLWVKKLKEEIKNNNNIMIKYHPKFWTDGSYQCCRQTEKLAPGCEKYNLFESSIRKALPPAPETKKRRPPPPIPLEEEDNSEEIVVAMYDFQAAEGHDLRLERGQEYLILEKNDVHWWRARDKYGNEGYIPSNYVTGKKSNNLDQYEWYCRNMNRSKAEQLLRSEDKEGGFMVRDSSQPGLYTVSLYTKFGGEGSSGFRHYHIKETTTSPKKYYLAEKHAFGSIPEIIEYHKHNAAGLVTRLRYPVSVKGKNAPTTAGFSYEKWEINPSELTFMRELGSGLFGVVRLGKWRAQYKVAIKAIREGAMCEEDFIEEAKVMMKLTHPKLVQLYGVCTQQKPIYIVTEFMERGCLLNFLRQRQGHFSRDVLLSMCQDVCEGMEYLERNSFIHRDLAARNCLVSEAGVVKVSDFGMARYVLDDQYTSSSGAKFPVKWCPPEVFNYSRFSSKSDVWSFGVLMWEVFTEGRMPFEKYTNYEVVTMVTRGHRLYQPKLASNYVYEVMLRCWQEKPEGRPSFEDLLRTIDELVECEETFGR
The experiment in a line: Inhibition of His-tagged recombinant human TEC expressed in baculovirus expression system preincubated for 1 hr by Z'lyte assay.

The target of assay [5] is T2, Tyrosine-protein kinase ITK/TSK (Homo sapiens, UniProt Q08881).
T2 sequence (Q08881 whole entry): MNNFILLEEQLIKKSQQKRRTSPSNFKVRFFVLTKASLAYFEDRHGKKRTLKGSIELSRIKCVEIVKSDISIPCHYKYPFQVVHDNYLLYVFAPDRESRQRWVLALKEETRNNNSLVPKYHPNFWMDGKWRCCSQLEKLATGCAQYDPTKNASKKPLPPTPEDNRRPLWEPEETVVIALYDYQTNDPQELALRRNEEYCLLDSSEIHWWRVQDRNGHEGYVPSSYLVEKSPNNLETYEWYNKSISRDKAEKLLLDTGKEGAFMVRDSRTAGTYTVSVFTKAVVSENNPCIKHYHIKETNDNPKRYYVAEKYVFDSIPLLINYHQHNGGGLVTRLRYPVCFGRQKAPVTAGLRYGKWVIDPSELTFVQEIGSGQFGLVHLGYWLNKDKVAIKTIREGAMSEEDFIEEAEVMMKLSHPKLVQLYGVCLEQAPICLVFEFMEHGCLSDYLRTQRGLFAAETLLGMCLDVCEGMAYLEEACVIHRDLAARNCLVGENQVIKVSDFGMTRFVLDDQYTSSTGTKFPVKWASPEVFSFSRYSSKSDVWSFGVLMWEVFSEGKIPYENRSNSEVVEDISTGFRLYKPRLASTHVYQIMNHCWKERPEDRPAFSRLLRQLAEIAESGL
The experiment in a line: Inhibition of recombinant full length human GST-tagged ITK expressed in baculovirus expression system using tyrosine-1 peptide as substrate preincubated for 1 hr in presence of ATP by Z'-LYTE assay.

Assay [6] has as its target Receptor tyrosine-protein kinase erbB-4 (Homo sapiens, UniProt Q15303). The experiment in a line: Inhibition of recombinant human N-terminal GST-tagged ERBB4 catalytic domain (708 to 993 residues) expressed in baculovirus expression system using tyrosine-1 peptide as substrate preincubated for 1 hr in presence of ATP by Z'-LYTE assay.
Assay [7] has as its target T3, Tyrosine-protein kinase JAK3 (Homo sapiens, UniProt P52333).
T3 sequence (P52333 whole entry): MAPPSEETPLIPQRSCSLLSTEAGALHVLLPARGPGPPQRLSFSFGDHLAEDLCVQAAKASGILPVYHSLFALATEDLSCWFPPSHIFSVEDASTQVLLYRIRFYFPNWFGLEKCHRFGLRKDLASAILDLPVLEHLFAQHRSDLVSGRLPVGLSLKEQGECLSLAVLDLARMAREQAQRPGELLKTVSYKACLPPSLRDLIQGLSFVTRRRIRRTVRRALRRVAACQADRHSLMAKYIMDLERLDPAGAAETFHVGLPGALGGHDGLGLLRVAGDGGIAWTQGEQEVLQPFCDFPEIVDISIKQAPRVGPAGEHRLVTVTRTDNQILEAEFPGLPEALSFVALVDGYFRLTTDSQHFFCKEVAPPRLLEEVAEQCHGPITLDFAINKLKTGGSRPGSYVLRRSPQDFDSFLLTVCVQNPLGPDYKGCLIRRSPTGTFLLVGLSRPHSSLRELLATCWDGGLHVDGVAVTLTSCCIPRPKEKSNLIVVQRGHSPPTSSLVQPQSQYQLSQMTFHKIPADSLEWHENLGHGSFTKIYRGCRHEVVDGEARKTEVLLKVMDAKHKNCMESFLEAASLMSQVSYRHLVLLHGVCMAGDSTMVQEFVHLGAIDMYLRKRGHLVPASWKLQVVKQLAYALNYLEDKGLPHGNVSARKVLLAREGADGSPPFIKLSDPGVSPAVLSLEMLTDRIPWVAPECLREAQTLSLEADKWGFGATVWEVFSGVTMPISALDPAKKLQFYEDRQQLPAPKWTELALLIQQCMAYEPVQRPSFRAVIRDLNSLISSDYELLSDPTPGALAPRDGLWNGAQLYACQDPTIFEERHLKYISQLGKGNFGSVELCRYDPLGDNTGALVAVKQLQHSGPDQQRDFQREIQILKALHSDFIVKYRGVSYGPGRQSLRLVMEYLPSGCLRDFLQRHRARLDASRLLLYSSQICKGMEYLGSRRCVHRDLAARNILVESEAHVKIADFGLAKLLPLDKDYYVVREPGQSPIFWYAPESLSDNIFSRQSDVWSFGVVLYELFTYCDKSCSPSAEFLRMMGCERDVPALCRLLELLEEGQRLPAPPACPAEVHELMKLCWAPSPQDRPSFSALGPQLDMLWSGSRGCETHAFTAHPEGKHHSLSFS
The experiment in a line: Inhibition of recombinant human GST-tagged JAK3 catalytic domain (781 to 1124 residues) expressed in baculovirus expression system using tyrosine-6 peptide as substrate preincubated for 1 hr in presence of ATP by Z'-LYTE assay.

Assay [8] has as its target Tyrosine-protein kinase Blk (Homo sapiens, UniProt P51451). The assay can be described thus: Inhibition of recombinant full length human His-tagged BLK cytoplasmic domain expressed in baculovirus expression system using tyrosine-1 peptide as substrate preincubated for 1 hr in presence of ATP by Z'-LYTE assay.

Chain of Tyrosine-protein kinase Blk (P51451 whole entry, the tested form may be a part): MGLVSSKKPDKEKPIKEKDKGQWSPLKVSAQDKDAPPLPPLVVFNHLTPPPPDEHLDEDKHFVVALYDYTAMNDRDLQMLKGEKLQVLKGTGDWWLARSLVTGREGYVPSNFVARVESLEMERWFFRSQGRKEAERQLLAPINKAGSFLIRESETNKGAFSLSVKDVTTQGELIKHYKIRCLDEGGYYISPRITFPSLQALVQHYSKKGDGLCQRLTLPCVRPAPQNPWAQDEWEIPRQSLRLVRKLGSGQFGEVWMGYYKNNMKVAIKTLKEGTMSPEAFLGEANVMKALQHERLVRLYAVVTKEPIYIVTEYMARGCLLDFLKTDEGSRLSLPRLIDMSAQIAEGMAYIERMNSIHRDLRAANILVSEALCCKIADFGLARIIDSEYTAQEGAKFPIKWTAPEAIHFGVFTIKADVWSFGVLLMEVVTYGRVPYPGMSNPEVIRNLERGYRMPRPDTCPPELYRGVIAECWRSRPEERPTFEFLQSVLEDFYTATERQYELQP
Chain of Receptor tyrosine-protein kinase erbB-4 (Q15303 whole entry, the tested form may be a part): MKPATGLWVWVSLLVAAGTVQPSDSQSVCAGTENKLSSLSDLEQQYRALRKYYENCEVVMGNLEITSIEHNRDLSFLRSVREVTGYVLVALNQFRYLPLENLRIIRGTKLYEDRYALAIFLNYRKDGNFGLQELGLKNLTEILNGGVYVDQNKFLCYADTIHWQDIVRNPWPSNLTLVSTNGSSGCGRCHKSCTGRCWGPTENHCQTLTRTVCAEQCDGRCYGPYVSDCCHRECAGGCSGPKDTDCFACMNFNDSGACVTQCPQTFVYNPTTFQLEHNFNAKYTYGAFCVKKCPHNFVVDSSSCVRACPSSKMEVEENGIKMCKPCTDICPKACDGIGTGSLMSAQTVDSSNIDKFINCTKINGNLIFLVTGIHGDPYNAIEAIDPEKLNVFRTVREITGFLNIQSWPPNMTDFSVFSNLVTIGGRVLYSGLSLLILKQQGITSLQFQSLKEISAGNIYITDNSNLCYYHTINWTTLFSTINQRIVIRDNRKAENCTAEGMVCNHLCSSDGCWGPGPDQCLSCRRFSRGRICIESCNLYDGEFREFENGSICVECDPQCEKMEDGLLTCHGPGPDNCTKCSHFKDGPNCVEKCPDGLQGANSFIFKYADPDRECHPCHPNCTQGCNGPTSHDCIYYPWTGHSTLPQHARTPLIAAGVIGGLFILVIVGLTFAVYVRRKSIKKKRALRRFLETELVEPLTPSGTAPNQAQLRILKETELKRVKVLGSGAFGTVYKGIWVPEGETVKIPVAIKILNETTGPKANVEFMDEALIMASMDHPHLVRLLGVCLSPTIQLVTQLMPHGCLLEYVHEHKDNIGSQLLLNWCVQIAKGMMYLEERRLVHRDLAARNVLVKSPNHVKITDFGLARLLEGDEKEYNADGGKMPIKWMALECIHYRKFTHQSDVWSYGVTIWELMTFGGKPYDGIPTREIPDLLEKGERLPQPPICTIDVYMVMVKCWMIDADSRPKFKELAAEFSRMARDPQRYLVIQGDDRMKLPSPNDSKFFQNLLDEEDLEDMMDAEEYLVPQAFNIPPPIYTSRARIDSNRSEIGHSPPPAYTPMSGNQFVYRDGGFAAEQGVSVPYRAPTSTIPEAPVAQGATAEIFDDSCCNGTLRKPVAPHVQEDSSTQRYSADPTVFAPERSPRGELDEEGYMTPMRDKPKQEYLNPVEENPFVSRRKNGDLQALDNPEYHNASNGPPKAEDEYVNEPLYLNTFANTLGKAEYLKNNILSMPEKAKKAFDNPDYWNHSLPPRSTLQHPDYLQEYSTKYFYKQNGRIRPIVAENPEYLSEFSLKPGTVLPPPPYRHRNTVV
Chain of Epidermal growth factor receptor (P00533 whole entry): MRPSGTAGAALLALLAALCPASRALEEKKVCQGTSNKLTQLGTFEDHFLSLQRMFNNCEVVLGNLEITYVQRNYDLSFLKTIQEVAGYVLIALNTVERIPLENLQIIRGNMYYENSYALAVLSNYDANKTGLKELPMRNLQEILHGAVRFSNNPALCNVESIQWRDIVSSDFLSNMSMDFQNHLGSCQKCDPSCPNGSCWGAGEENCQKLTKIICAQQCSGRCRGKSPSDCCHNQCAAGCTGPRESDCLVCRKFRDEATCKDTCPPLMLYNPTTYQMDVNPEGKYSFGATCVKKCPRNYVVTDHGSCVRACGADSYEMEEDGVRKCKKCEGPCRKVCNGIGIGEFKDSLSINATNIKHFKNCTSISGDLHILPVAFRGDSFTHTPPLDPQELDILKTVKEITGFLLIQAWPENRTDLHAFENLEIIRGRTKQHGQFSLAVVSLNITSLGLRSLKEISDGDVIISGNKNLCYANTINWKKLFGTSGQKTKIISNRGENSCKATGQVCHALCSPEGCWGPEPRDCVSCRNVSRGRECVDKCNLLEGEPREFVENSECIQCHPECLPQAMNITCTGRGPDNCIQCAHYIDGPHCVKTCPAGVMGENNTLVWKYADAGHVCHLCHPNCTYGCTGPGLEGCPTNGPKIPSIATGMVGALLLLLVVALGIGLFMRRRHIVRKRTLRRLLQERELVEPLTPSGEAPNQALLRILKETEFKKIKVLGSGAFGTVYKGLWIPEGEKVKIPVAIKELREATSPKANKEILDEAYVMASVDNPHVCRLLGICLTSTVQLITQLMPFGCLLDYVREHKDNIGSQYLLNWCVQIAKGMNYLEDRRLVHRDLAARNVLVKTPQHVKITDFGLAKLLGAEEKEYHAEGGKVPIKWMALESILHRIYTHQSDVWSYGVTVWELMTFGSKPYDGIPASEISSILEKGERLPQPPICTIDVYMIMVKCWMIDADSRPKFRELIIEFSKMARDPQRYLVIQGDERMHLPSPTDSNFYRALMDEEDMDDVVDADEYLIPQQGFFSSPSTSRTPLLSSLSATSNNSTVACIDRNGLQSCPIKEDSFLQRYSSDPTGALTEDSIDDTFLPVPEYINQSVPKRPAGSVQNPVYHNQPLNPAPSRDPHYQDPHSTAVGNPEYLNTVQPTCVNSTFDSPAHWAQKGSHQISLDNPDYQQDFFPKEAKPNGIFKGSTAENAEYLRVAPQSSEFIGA

As for `CC#CC(=O)Nc1cc2c(Oc3ccc(C(=O)Nc4ccccn4)cc3)ccnc2cc1OCCN1CCOCC1`, the results for the concentration giving a half-maximal response (EC50) in assay [1] and in assay [3] were 15 nM and 4.1 nM, respectively. In addition, the IC50 (as a rule, the concentration at which inhibition is half-maximal) was > 1000 nM in assay [2]; 219 nM in assay [4]; > 1000 nM in assay [5]; 37 nM in assay [6]; > 1000 nM in assay [7]; 72 nM in assay [8].

With `COc1cc2nccc(Oc3ccc(C(=O)Nc4ccccn4)cc3)c2cc1NC(=O)C#CCCN1CCOCC1`, the EC50 – broadly, the midpoint of the concentration-response curve – in assay [1] turned out to be 4.1 nM; in assay [3], 1.8 nM. The IC50 is 33 nM in assay [2]; 184 nM in assay [4]; 916 nM in assay [5]; 901 nM in assay [6]; 174 nM in assay [7]; 8.3 nM in assay [8].

For the molecule `C=CC(=O)Nc1ccc2nccc(Oc3ccc(C(=O)Nc4cc(CC)ccn4)cc3)c2c1`, the EC50 in assay [1] was found to be 22 nM; in assay [3], 15 nM. Besides, the half-maximal inhibitory concentration (IC50) in assay [2] was 200 nM; in assay [4], 38 nM; in assay [5] it was > 1000 nM; in assay [6] it was 16 nM; in assay [7], 838 nM; in assay [8] it was 21.2 nM.
